# Patent US20230107642A1 (Erasca, Inc., priority 2020, published 2023)
# Target: T1, Cys12 of the KRAS 4B G12C protein (Homo sapiens, UniProt P01116, G12C)
# T1 construct: This protein contained 188 amino acids in total, including an N-terminal 6-Histidine tag; made in house; host or cells: E. coli BL21
# Assay: In vitro covalent adduct formation (CAF) assay, LC-MS intact mass
# Type: binding
# Conditions: 10 μM compound, after 1 hour
# How it was run: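 GDP-loaded (>95%) His-TEV-tagged KRAS 4B G12C (residues 1–169), 5 μM in TBS pH 7.4, incubated with 10 μM compound (4% DMSO) at 22° C for one hour. Intact-protein LC-MS gave free:adduct ratios, reported as percent protein modified; duplicate runs.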
row,Compound,CAF (% after 1 hour) [%]
1,"C=CC(=O)N1[C@H](C)CN(c2nc(=O)n3c4c(c(-c5nc(C(F)(F)F)cs5)c(C(F)(F)F)cc24)SC[C@@H](OC)C3)C[C@@H]1C [Example 1208, (S)-8-((3S,5R)-4-acryloyl-3,5-dimethylpiperazin-1-yl)-3-methoxy-10-(trifluoromethyl)-11-(4-(trifluoromethyl)thiazol-2-yl)-3,4-dihydro-2H,6H-[1,4]thiazepino[2,3,4-ij]quinazolin-6-one]",95
2,"C=CC(=O)N1[C@H](C)CN(c2nc(=O)n3c4c(c(-c5cc(C)c(F)cn5)c(C(F)(F)F)cc24)SC[C@@H](OC)C3)C[C@@H]1C [Example 1209, (S)-8-((3S,5R)-4-acryloyl-3,5-dimethylpiperazin-1-yl)-11-(5-fluoro-4-methylpyridin-2-yl)-3-methoxy-10-(trifluoromethyl)-3,4-dihydro-2H,6H-[1,4]thiazepino[2,3,4-ij]quinazolin-6-one]",96
3,"C=CC(=O)N1C2COCC1CN(c1nc(=O)n3c4c(c(-c5cc(Cl)c(F)cc5F)c(C(F)(F)F)cc14)SC[C@@H](OC)C3)C2 [Example 1210, (3S)-8-(9-acryloyl-3-oxa-7,9-diazabicyclo[3.3.1]nonan-7-yl)-11-(5-chloro-2,4-difluorophenyl)-3-methoxy-10-(trifluoromethyl)-3,4-dihydro-2H,6H-[1,4]thiazepino[2,3,4-ij]quinazolin-6-one]",94
4,"C=CC(=O)N1CCN(c2nc(=O)n3c4c(c(-c5cc(Cl)c(F)cc5F)c(C(F)(F)F)cc24)SC[C@@H](OC)C3)[C@@H]2CS(=O)(=O)C[C@@H]21 [Example 1211, (3S)-8-((4aR,7aS)-4-acryloyl-6,6-dioxidohexahydrothieno[3,4-b]pyrazin-1(2H)-yl)-11-(5-chloro-2,4-difluorophenyl)-3-methoxy-10-(trifluoromethyl)-3,4-dihydro-2H,6H-[1,4]thiazepino[2,3,4-ij]quinazolin-6-one]",97
5,"C=CC(=O)N1CCN(c2nc(=O)n3c4c(c(-c5cc(Cl)c(F)cc5F)c(C(F)(F)F)cc24)SC[C@@H](OC)C3)[C@@H]2CN(S(C)(=O)=O)C[C@@H]21 [Example 1212, (3S)-8-((4aS,7aR)-4-acryloyl-6-(methylsulfonyl)octahydro-1H-pyrrolo[3,4-b]pyrazin-1-yl)-11-(5-chloro-2,4-difluorophenyl)-3-methoxy-10-(trifluoromethyl)-3,4-dihydro-2H,6H-[1,4]thiazepino[2,3,4-ij]quinazolin-6-one]",50
6,"C=CC(=O)N1CCN(c2nc(=O)n3c4c(c(-c5cc(Cl)c(F)cc5F)c(C(F)(F)F)cc24)SC[C@@H](OC)C3)[C@@H]2COC[C@@H]21 [Example 1213, (3S)-8-((4aR,7aS)-4-acryloylhexahydrofuro[3,4-b]pyrazin-1(2H)-yl)-11-(5-chloro-2,4-difluorophenyl)-3-methoxy-10-(trifluoromethyl)-3,4-dihydro-2H,6H-[1,4]thiazepino[2,3,4-ij]quinazolin-6-one]",59
7,"C=CC(=O)N1CCN(c2nc(=O)n3c4c(c(-c5cc(Cl)c(F)cc5F)c(C(F)(F)F)cc24)SC[C@@H](OC)C3)[C@@H]2CSC[C@@H]21 [Example 1214, (3S)-8-((4aR,7aS)-4-acryloylhexahydrothieno[3,4-b]pyrazin-1(2H)-yl)-11-(5-chloro-2,4-difluorophenyl)-3-methoxy-10-(trifluoromethyl)-3,4-dihydro-2H,6H-[1,4]thiazepino[2,3,4-ij]quinazolin-6-one]",49
8,"C=CC(=O)N1[C@H](C)CN(c2nc(=O)n3c4c(c(-c5cc(C(F)(F)F)ns5)c(C(F)(F)F)cc24)SC[C@@H](OC)C3)C[C@@H]1C [Example 1215, (S)-8-((3S,5R)-4-acryloyl-3,5-dimethylpiperazin-1-yl)-3-methoxy-10-(trifluoromethyl)-11-(3-(trifluoromethyl)isothiazol-5-yl)-3,4-dihydro-2H,6H-[1,4]thiazepino[2,3,4-ij]quinazolin-6-one]",95
9,"C=CC(=O)N1[C@H](C)CN(c2nc(=O)n3c4c(c(-c5ncc(C(F)(F)F)s5)c(C(F)(F)F)cc24)SC[C@@H](OC)C3)C[C@@H]1C [Example 1216, (S)-8-((3S,5R)-4-acryloyl-3,5-dimethylpiperazin-1-yl)-3-methoxy-10-(trifluoromethyl)-11-(5-(trifluoromethyl)thiazol-2-yl)-3,4-dihydro-2H,6H-[1,4]thiazepino[2,3,4-ij]quinazolin-6-one]",94
10,"C=CC(=O)N1[C@H](C)CN(c2nc(=O)n3c4c(c(-c5ccc(F)cc5)c(C(F)(F)F)cc24)SC[C@@H](OCF)C3)C[C@@H]1C [Example 1217, (S)-8-((3S,5R)-4-acryloyl-3,5-dimethylpiperazin-1-yl)-3-(fluoromethoxy)-11-(4-fluorophenyl)-10-(trifluoromethyl)-3,4-dihydro-2H,6H-[1,4]thiazepino[2,3,4-ij]quinazolin-6-one]",95
11,"C=C(F)C(=O)N1[C@H](C)CN(c2nc(=O)n3c4c(c(-c5cc(Cl)c(F)cc5F)c(C(F)(F)F)cc24)SC[C@@H](OC)C3)C[C@@H]1C [Example 1218, (3S)-11-(5-Chloro-2,4-difluorophenyl)-8-((3S,5R)-4-(2-fluoroacryloyl)-3,5-dimethylpiperazin-1-yl)-3-methoxy-10-(trifluoromethyl)-3,4-dihydro-2H,6H-[1,4]thiazepino[2,3,4-ij]quinazolin-6-one]",66
12,"C=C(F)C(=O)N1CCN(c2nc(=O)n3c4c(c(-c5cc(Cl)c(F)cc5F)c(C(F)(F)F)cc24)SC[C@@H](OC)C3)CC1 [Example 1219, (3S)-11-(5-Chloro-2,4-difluorophenyl)-8-(4-(2-fluoroacryloyl)piperazin-1-yl)-3-methoxy-10-(trifluoromethyl)-3,4-dihydro-2H,6H-[1,4]thiazepino[2,3,4-ij]quinazolin-6-one]",64
13,"C=C(F)C(=O)N1[C@H](C)CN(c2nc(=O)n3c4c(c(-c5ccc(F)cc5F)c(C(F)(F)F)cc24)SC[C@@H](OC)C3)C[C@@H]1C [Example 1220, (3S)-11-(2,4-Difluorophenyl)-8-((3S,5R)-4-(2-fluoroacryloyl)-3,5-dimethylpiperazin-1-yl)-3-methoxy-10-(trifluoromethyl)-3,4-dihydro-2H,6H-[1,4]thiazepino[2,3,4-ij]quinazolin-6-one]",67
14,"C=C(F)C(=O)N1CCN(c2nc(=O)n3c4c(c(-c5ccc(F)cc5F)c(C(F)(F)F)cc24)SC[C@@H](OC)C3)CC1 [Example 1221, (3S)-11-(2,4-Difluorophenyl)-8-(4-(2-fluoroacryloyl)piperazin-1-yl)-3-methoxy-10-(trifluoromethyl)-3,4-dihydro-2H,6H-[1,4]thiazepino[2,3,4-ij]quinazolin-6-one]",61
15,"C=C(F)C(=O)N1[C@H](C)CN(c2nc(=O)n3c4c(c(-c5ccc(F)cc5)c(C(F)(F)F)cc24)SC[C@@H](OC)C3)C[C@@H]1C [Example 1222, (S)-8-((3S,5R)-4-(2-Fluoroacryloyl)-3,5-dimethylpiperazin-1-yl)-11-(4-fluorophenyl)-3-methoxy-10-(trifluoromethyl)-3,4-dihydro-2H,6H-[1,4]thiazepino[2,3,4-ij]quinazolin-6-one]",59
16,"C=C(F)C(=O)N1CCN(c2nc(=O)n3c4c(c(-c5ccc(F)cc5)c(C(F)(F)F)cc24)SC[C@@H](OC)C3)CC1 [Example 1223, (S)-8-(4-(2-Fluoroacryloyl)piperazin-1-yl)-11-(4-fluorophenyl)-3-methoxy-10-(trifluoromethyl)-3,4-dihydro-2H,6H-[1,4]thiazepino[2,3,4-ij]quinazolin-6-one]",57
17,"C=CC(=O)N1[C@H](C)CN(c2nc(=O)n3c4c(c(-c5ccc(F)cc5)c(C(F)(F)F)cc24)SC[C@@H](NS(C)(=O)=O)C3)C[C@@H]1C [Example 1224, N—((S)-8-((3S,5R)-4-Acryloyl-3,5-dimethylpiperazin-1-yl)-11-(4-fluorophenyl)-6-oxo-10-(trifluoromethyl)-3,4-dihydro-2H,6H-[1,4]thiazepino[2,3,4-ij]quinazolin-3-yl)methanesulfonamide]",96
18,"C=CC(=O)N1[C@H](C)CN(c2nc(=O)n3c4c(c(-c5ncc(F)cc5F)c(C(F)(F)F)cc24)SC[C@@H](OC)C3)C[C@@H]1C [Example 1225, (3S)-8-((3S,5R)-4-Acryloyl-3,5-dimethylpiperazin-1-yl)-11-(3,5-difluoropyridin-2-yl)-3-methoxy-10-(trifluoromethyl)-3,4-dihydro-2H,6H-[1,4]thiazepino[2,3,4-ij]quinazolin-6-one]",95
19,"C=CC(=O)N1[C@H](C)CN(c2nc(=O)n3c4c(c(-c5ccc(F)cc5C#N)c(C(F)(F)F)cc24)SC[C@@H](OC)C3)C[C@@H]1C [Example 1226, 2-((3S)-8-((3S,5R)-4-Acryloyl-3,5-dimethylpiperazin-1-yl)-3-methoxy-6-oxo-10-(trifluoromethyl)-3,4-dihydro-2H,6H-[1,4]thiazepino[2,3,4-ij]quinazolin-11-yl)-5-fluorobenzonitrile]",81
20,"C=CC(=O)N1[C@H](C)CN(c2nc(=O)n3c4c(c(-c5ccc(F)cc5F)c(C(F)(F)F)cc24)SCCC3)C[C@@H]1C [Example 1227, 8-((3S,5R)-4-acryloyl-3,5-dimethylpiperazin-1-yl)-11-(2,4-difluorophenyl)-10-(trifluoromethyl)-3,4-dihydro-2H,6H-[1,4]thiazepino[2,3,4-ij]quinazolin-6-one]",93
21,"[2H]C([2H])=C([2H])C(=O)N1[C@H](C)CN(c2nc(=O)n3c4c(c(-c5ccc(F)cc5)c(C(F)(F)F)cc24)SC[C@@H](OC)C3)C[C@@H]1C [Example 1228, (S)-8-((3S,5R)-4-(acryloyl-d3)-3,5-dimethylpiperazin-1-yl)-11-(4-fluorophenyl)-3-methoxy-10-(trifluoromethyl)-3,4-dihydro-2H,6H-[1,4]thiazepino[2,3,4-ij]quinazolin-6-one]",96
